# Measured values published in US20020028938A1, “Prostaglandin endoperoxide H synthase biosynthesis inhibitors” (priority 1997, published 2002).
row,melting point [°C],SMILES
1,160 to 161,"CS(=O)(=O)c1ccc(-c2cnn(CC(F)(F)F)c(=O)c2N2CCCCC2)cc1 [Example 304, 2-(2,2,2-Trifluoroethyl)-4-(1-piperidinyl)-5-[4-(methylsulfonyl)phenyl]-3(2H)-pyridazinone]"
2,158 to 160,"CS(=O)(=O)c1ccc(-c2cnn(CC(F)(F)F)c(=O)c2Nc2ccc(F)cc2)cc1 [Example 316, 2-(2,2,2-Trifluoroethyl)-4-(4-fluoroanilino)-5-[4-(methylsulfonyl)phenyl]-3(2H)-pyridazinone]"
3,112 to 114,"COc1c(-c2ccc(S(C)(=O)=O)cc2)cnn(-c2cccc(Cl)c2)c1=O [Example 331, 2-(3-Chlorophenyl)-4-methoxy-5-[4-(methylsulfonyl)phenyl]-3(2H)-pyridazinone]"
4,192 to 195,"CS(=O)(=O)c1ccc(-c2cnn(-c3ccc(F)cc3)c(=O)c2N2CCCC2)cc1 [Example 356, 2-(4-Fluorophenyl)-4-(1-pyrrolidinyl)-5-[4-(methylsulfonyl)phenyl]-3(2H)-pyridazinone]"
5,178,"Cc1ccc(Sc2c(-c3ccc(S(C)(=O)=O)cc3)cnn(-c3cccc(Cl)c3)c2=O)cc1 [Example 357, 2-(3-Chlorophenyl)-4-(4-methylphenylthio)-5-[4-(methylsulfonyl)phenyl]-3(2H)-pyridazinone]"
6,142 to 145,"CS(=O)(=O)c1ccc(-c2cnn(-c3cccc(Cl)c3)c(=O)c2SCc2ccccc2)cc1 [Example 359, 2-(3-Chlorophenyl)-4-(phenylmethylthio)-5-[4-(methylsulfonyl)phenyl]-3(2H)-pyridazinone]"
7,140 to 149,"CS(=O)(=O)c1ccc(-c2cnn(-c3cccc(Cl)c3)c(=O)c2SCc2ccco2)cc1 [Example 360, 2-(3-Chlorophenyl)-4-(2-furylmethylthio)-5-[4-(methylsulfonyl)phenyl]-3(2H)-pyridazinone]"
8,175 to 177,"CS(=O)(=O)c1ccc(-c2cnn(-c3ccc(F)cc3)c(=O)c2Cc2ccc(F)cc2)cc1 [Example 377, 2-(4-Fluorophenyl)-4-(4-fluorobenzyl)-5-[4-(methylsulfonyl)phenyl]-3(2H)-pyridazinone]"
9,166 to 167,"CS(=O)(=O)c1ccc(-c2cnn(-c3ccc(F)cc3)c(=O)c2OCC2CC2)cc1 [Example 416, 2-(4-Fluorophenyl)-4-cyclopropylmethoxy-5-[4-(methylsulfonyl)phenyl]-3(2H)-pyridazinone]"
10,111 to 117,"CS(=O)(=O)c1ccc(-c2cnn(-c3ccc(F)cc3)c(=O)c2OCCC2CC2)cc1 [Example 417, 2-(4-Fluorophenyl)-4-(2-cyclopropyl-1-ethoxy)-5-[4-(methylsulfonyl)phenyl]-3(2H)-pyridazinone]"
11,102 to 103,"CC(C)CCC(C)Oc1c(-c2ccc(S(C)(=O)=O)cc2)cnn(-c2ccc(F)cc2)c1=O (centres unmarked) [Example 429, 2-(4-Fluorophenyl)-4-(5-methyl-2-hexyloxy)-5-[4-(methylsulfonyl)phenyl]-3(2H)-pyridazinone]"
12,90 to 92,"CCCC(CCOc1c(-c2ccc(S(C)(=O)=O)cc2)cnn(-c2ccc(F)cc2)c1=O)SC (centres unmarked) [Example 433, 2-(4-Fluorophenyl)-4-(3-methylthio-1-hexyloxy)-5-[4-(methylsulfonyl)phenyl]-3(2H)-pyridazinone]"
13,121 to 123,"CCOc1c(-c2ccc(S(C)(=O)=O)cc2)cnn(-c2ccc(F)c(F)c2)c1=O [Example 436, 2-(3,4-Difluorophenyl)-4-ethoxy-5-[4-(methylsulfonyl)phenyl]-3(2H)-pyridazinone]"
14,100 to 101,"CS(=O)(=O)c1ccc(-c2cnn(-c3ccc(F)c(F)c3)c(=O)c2OCCC2CCCC2)cc1 [Example 439, 2-(3,4-Difluorophenyl)-4-(2-cyclopentyl-1-ethoxy)-5-[4-(methylsulfonyl)phenyl]-3(2H)-pyridazinone]"
15,205 to 207,"CS(=O)(=O)c1ccc(-c2cnn(CC(O)c3ccccc3)c(=O)c2-c2ccc(F)cc2)cc1 (centres unmarked) [Example 441, 2-(2-Hydroxy-2-phenylethyl)-4-(4-fluorophenyl)-5-[4-(methylsulfonyl)phenyl]-3(2H)-pyridazinone]"
16,113 to 115,"COc1c(-c2ccc(S(C)(=O)=O)cc2)cnn(-c2ccc(F)c(F)c2)c1=O [Example 453, 2-(3,4-Difluorophenyl)-4-methoxy-5-[4-(methylsulfonyl)phenyl]-3(2H)-pyridazinone]"
17,199 to 201,"CS(=O)(=O)c1ccc(-c2cnn(-c3ccc(F)cc3)c(=O)c2-c2cccc(F)c2)cc1 [Example 458, 2-(4-Fluorophenyl)-4-(3-fluorophenyl)-5-[4-(methylsulfonyl)phenyl]-3(2H)-pyridazinone]"
18,143 to 145,"CON=C(C)COc1c(-c2ccc(S(C)(=O)=O)cc2)cnn(-c2ccc(F)c(F)c2)c1=O [Example 461, 2-(3,4-Difluorophenyl)-4-[2-(methoxyimino)-1-propoxy]-5-[4-(methylsulfonyl)phenyl]-3(2H)-pyridazinone]"

# Further lines, the compound ahead of its results:
row,SMILES,melting point [°C]
1,"CS(=O)(=O)c1ccc(-c2cnn(CC(F)(F)F)c(=O)c2NCC2CC2)cc1 [Example 302, 2-(2,2,2-Trifluoroethyl)-4-(cyclopropylmethylamino)-5-[4-(methylsulfonyl)phenyl]-3(2H)-pyridazinone]",145 to 146
2,"CS(=O)(=O)c1ccc(-c2cnn(CC(F)(F)F)c(=O)c2NC2CCc3ccccc32)cc1 (centres unmarked) [Example 303, 2-(2,2,2-Trifluoroethyl)-4-(2,3-dihydro-1H-inden-1-ylamino)-5-[4-(methylsulfonyl)phenyl]-3(2H)-pyridazinone]",155 to 158
3,"CS(=O)(=O)c1ccc(-c2cnn(CC(F)(F)F)c(=O)c2NCCCO)cc1 [Example 305, 2-(2,2,2-Trifluoroethyl)-4-(3-hydroxypropylamino)-5-[4-(methylsulfonyl)phenyl]-3(2H)-pyridazinone]",152 to 154
4,"C[C@@H](O)CNc1c(-c2ccc(S(C)(=O)=O)cc2)cnn(CC(F)(F)F)c1=O [Example 307, 2-(2,2,2-Trifluoroethyl)-4-(2R-hydroxylpropylamino)-5-[4-(methylsulfonyl)phenyl]3(2H)-pyridazinone]",140 to 142
5,"CS(=O)(=O)c1ccc(-c2cnn(CC(F)(F)F)c(=O)c2NCCC#N)cc1 [Example 308, 2-(2,2,2-Trifluoroethyl)-4-(2-cyanoethylamino)-5-[4-(methylsulfonyl)phenyl]-3(2H)-pyridazinone]",172 to 174
6,"COc1cc(Nc2c(-c3ccc(S(C)(=O)=O)cc3)cnn(CC(F)(F)F)c2=O)cc(C(F)(F)F)c1 [Example 310, 2-(2,2,2-Trifluoroethyl)-4-[3-methoxy-5-(trifluoromethyl)anilino]-5-[4-(methylsulfonyl)phenyl]-3(2H)-pyridazinone]",206 to 208
7,"CS(=O)(=O)c1ccc(-c2cnn(CC(F)(F)F)c(=O)c2Nc2ccccc2)cc1 [Example 311, 2-(2,2,2-Trifluoroethyl)-4-anilino-5-[4-(methylsulfonyl)phenyl]-3(2H)-pyridazinone]",154 to 156
8,"CS(=O)(=O)c1ccc(-c2cnn(CC(F)(F)F)c(=O)c2Nc2cc(F)cc(F)c2F)cc1 [Example 315, 2-(2,2,2-Trifluoroethyl)-4-(2,3,5-trifluoroanilino)-5-[4-(methylsulfonyl)phenyl]-3(2H)-pyridazinone]",190 to 194
9,"CS(=O)(=O)c1ccc(-c2cnn(Cc3ccccc3)c(=O)c2-c2ccc3c(c2)COC3=O)cc1 [Example 319, 2-Benzyl-4-(1-oxo-1,3-dihydro-2-benzofuran-5-yl)-5-[4-(methylsulfonyl)phenyl]-3(2H)-pyridazinone]",> 250
10,"CC(C)COc1c(-c2ccc(S(N)(=O)=O)c(F)c2)cnn(CC(F)(F)F)c1=O [Example 382, 2-(2,2,2-Trifluoroethyl)-4-(2-methylpropoxy)-5-[3-fluoro-4-(aminosulfonyl)phenyl]-3(2H)-pyridazinone]",163 to 164
11,"NS(=O)(=O)c1ccc(-c2cnn(Cc3ccccc3)c(=O)c2Cc2ccc(F)cc2)cc1 [Example 383, 2-Benzyl-4-(4-fluorobenzyl)-5-[4-(aminosulfonyl)phenyl]-3(2H)-pyridazinone]",120 to 123
12,"Cc1cc(-c2c(-c3ccc(S(N)(=O)=O)cc3)cnn(-c3ccc(F)c(Cl)c3)c2=O)ccc1F [Example 389, 2-(3-Chloro-4-fluorophenyl)-4-(4-fluoro-3-methylphenyl)-5-[4-(aminosulfonyl)phenyl]-3(2H)-pyridazinone]",243 to 245
13,"CC(CCOc1c(-c2ccc(S(C)(=O)=O)cc2)cnn(-c2ccc(F)c(F)c2)c1=O)C(F)(F)F (centres unmarked) [Example 435, 2-(3,4-Difluorophenyl)-4-(3-trifluoromethyl-1-butoxy)-5-[4-(methylsulfonyl)phenyl]-3(2H)-pyridazinone]",126 to 128
14,"CC(=O)CCOc1c(-c2ccc(S(C)(=O)=O)cc2)cnn(-c2ccc(F)cc2)c1=O [Example 468, 2-(4-Fluorophenyl)-4-(3-oxo-1-butoxy)-5-[4-(methylsulfonyl)phenyl]-3(2H)-pyridazinone]",133 to 136
15,"CC(C)(O)CCOc1c(-c2ccc(S(N)(=O)=O)cc2)cnn(-c2ccc(F)cc2)c1=O [Example 470, 2-(4-Fluorophenyl)-4-(3-hydroxy-3-methyl-1-butoxy)-5-[4-(aminosulfonyl)phenyl]-3(2H)-pyridazinone]",163 to 164
16,"CC(C)(O)CCOc1c(-c2ccc(S(N)(=O)=O)cc2)cnn(-c2ccc(F)c(F)c2)c1=O [Example 472, 2-(3,4-Difluorophenyl)-4-(3-hydroxy-3-methyl-1-butoxy)-5-[4-(aminosulfonyl)phenyl]-3(2H)-pyridazinone]",181
17,"CC(C)(O)CCOc1c(-c2ccc(S(C)(=O)=O)cc2)cnn(-c2ccc(F)c(Cl)c2)c1=O [Example 473, 2-(3-Chloro-4-fluorophenyl)-4-(3-hydroxy-3-methyl-1-butoxy)-5-[4-(methylsulfonyl)phenyl]-3(2H)-pyridazinone]",108 to 110
